These results are taken from paper PMC7391726, “Fatty acid mimetic PBI-4547 restores metabolic homeostasis via GPR84 in mice with non-alcoholic fatty liver disease” (Scientific Reports, 2020).

For one experiment, the system named is ob/ob mice. As to the kind of experiment: ob/ob leptin-deficient genetic mouse model of metabolic syndrome. Type of experiment: in vivo. The source says:
We next sought to confirm our above findings obtained from the diet-induced model of obesity by using the ob/ob leptin-deficient genetic mouse model of metabolic syndrome. […] Additionally, the mRNA expression profiles of glucose- and FA-related genes in liver (Fig. S4D,E) and WAT (Fig. S5) also differed between pioglitazone- and PBI-4547-treated mice.

The target of a further experiment is T1, GPR84 (Homo sapiens, UniProt Q9NQS5).
T1 construct: expressed in transfected cells; host or cells: HEK293
As to the kind of experiment: BRET Gαi2 activation biosensor in HEK293 cells transfected with GPR84. It is filed as cell-based. To be noted: compound alone vs vehicle. The source says:
PBI-4547 (2-[3,5-dipentylphenyl]acetate sodium salt) is a medium-chain FA (MCFA) mimetic (Fig. 1A). Accordingly, we examined the signaling properties of PBI-4547 on receptors known to be activated by MCFAs. […] This biosensor consisted of an Rluc8-tagged Gαi2 subunit, a GFP10-tagged Gγ2 subunit, and an untagged Gβ1. Agonist stimulation and receptor activation triggers a physical separation between the Gα-Rluc8 donor and the GFP10-Gγ2 acceptor, resulting in a decrease in BRET signal, whose amplitude is correlated to ligand efficacy. […] (A) Chemical structure of PBI-4547. (B) Gi pathway activation was monitored in HEK293 cells transfected with GPR84 and the Gαi2 activation biosensor. […] (C) β-arrestin 2 recruitment to activated GPR120 receptor was monitored in HEK293 cells transfected with RLuc8-β-arrestin 2 and GPR120-GFP10. (D) Cells transfected with GPR40 and Gαq or Gαi2 activation biosensor were exposed to increasing concentrations of PBI-4547 or to 500 µM of sodium decanoate, and BRET variation compared with vehicle was measured. Cells were exposed to increasing concentrations of PBI-4547 or to 100 µM of GW9508, and BRET variation compared with vehicle was measured. (E) LanthaScreen TR-FRET competitive binding assay of PBI-4547 and PPAR control agonists to the LBD of PPARα, PPARδ and PPARγ. (F) Cell-based GAL4 transactivation assay in HEK293 cells transfected with the LBD of PPARα, PPARδ or PPARγ, and treated with increasing concentrations of PBI-4547 or PPAR control agonists. Data in (B–D) are expressed as means ± SEM of 4–5 experiments; data in (E,F) are from a representative experiment from a total of 3 to 4 independent experiments. BRET measurements in transiently transfected HEK293 cells were performed as previously described. Ligands were incubated with cells at room temperature for 10 min (G protein biosensors) or 25 min (β-arrestin/GPR120) before collecting BRET[2] readings between Rluc8 and GFP10.
A general note: Bioluminescence resonance energy transfer reports proximity on the nanometre scale.

Another experiment concerns the target T2, GPR40 (Homo sapiens, UniProt O14842).
T2 construct: expressed in transfected cells; host or cells: HEK293
Details: method as in PMID 29454750. To be noted: previously reported, cited from earlier work.

pEC50: −log10 of the molar value. Read-outs that look alike come from different tables or passages of the source.

T2 sequence (O14842 whole entry, species assumed): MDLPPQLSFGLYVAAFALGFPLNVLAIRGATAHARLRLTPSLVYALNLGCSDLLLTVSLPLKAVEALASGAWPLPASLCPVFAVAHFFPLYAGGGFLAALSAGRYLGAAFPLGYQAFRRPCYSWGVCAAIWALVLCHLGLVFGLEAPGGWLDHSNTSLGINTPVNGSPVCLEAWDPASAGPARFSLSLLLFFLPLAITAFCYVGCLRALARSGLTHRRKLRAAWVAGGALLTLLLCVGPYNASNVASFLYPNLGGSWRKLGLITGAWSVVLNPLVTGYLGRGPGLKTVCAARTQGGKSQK
T1 sequence (Q9NQS5 whole entry, species assumed): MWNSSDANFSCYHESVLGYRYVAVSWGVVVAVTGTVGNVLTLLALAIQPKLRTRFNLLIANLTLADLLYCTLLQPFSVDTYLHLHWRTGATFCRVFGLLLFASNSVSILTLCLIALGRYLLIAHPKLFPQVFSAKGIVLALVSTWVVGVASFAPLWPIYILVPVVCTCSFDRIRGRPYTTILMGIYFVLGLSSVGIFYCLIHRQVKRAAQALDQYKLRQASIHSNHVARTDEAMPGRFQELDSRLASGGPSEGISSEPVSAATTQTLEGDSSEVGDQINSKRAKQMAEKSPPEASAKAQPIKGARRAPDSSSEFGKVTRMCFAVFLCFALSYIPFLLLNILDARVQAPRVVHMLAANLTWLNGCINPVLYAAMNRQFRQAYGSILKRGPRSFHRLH

With `CCc1ccc(CCOc2ccc(CC3SC(=O)NC3=O)cc2)nc1` (stereo not shown) [pioglitazone, reference compound], in the experiment with ob/ob mice, the bodyweight result is “increased trend towards weight gain”.
By pEC50 is commonly meant −log10 of the EC50, conventionally taken in molar units. As for `CCCCCCCCCC(=O)[O-].[Na+]` [sodium decanoate], the “GPR84/Gαi2-mediated BRET signal modulation (agonist mode)” value on GPR84 is “induced a BRET signal decrease”. For the same compound, the pEC50 on GPR40 (Gαi2, read-out: EC50, GPR40 Gαi2) was 4.80; at GPR40 (Gαq, read-out: EC50, GPR40 Gαq) it was 3.99.
